The text below walks through data of patent US20240025856A1, “1,2,3,4-TETRAHYDROQUINOLINE DERIVATIVES AS INHIBITORS OF THE YAP/TAZ-TEAD ACTIVATION FOR TREATING CANCER” (KATHOLIEKE UNIVERSITEIT LEUVEN, priority 2020, published 2024).

Assay [1] deals with Calu-1. The assay is described as follows: Cancer cell line proliferation assay (CellTiter-Glo), Calu-1. Format: cell-based. As to conditions: Homo sapiens, 144 h, Lung (squamous), NF2 HOM DEL/LATS2 HOM DEL, 6 days. As to the method: (§1) All the cell lines are cultured in the media supplemented with 10-20% fetal bovine serum, in the temperature of 37° C., 5% CO2 and 95% humidity. The indicated cell lines (all sourced from the ATCC cell culture collection) are plated in 96-Well Flat Clear Bottom Black Polystyrene TC-Treated Microplates with the final cell density of 4×10^3 cells/well. Cells are incubated overnight and then compounds, dissolved in DMSO, are added in dose-response. Cells are incubated with compound dilutions for another 6 days. Cell viability is quantitated using CellTiter-Glo reagent (Perkin Elmer) and measured using an EnVision Multi Label Reader.
For orientation: In ATP-based viability assays light output follows the ATP content of the culture.

The subject of assay [2] is NCI-H226 tumor cells. The assay is described as follows: In vivo efficacy in a subcutaneous human lung cancer xenograft model (NCI-H226 mesothelioma). As to conditions: 100 mg/kg, p.o., BID × 21 days. Also on record: species or system Female BALB/c Nude Mice. As to the method: The NCI-H226 tumor cells were maintained in vitro with RPMI-1640 medium supplemented with 10% fetal bovine serum at 37° C. in an atmosphere of 5% CO2 in air. The cells in exponential growth phase were harvested and the cell numbers were quantitated by hemocytometer and cell viability was quantified by Trypan Blue counting before tumor inoculation. Balb/c nude mouse were inoculated with subcutaneously in the right front flank regions with 1×10^7 of NCI-H226 tumor cells in 0.1 mL of PBS mixed with 0.1 ml of Matrigel (1:1) for tumor development. All animals were randomized based on the tumor sizes as well as body weights and randomly allocated to the different study groups (8 mice per group). The randomization started when the mean tumor size at the right rear flank region had reached approximately 172 mm^3. The date of randomization was denoted as Day 0.
Cpd. No. 084 was formulated in Vehicle 1 (PEG400 (40%)+PG (30%)+WFI (30%)) as a 10 mg/ml solution, and dosed orally, twice daily, using 10 μl/g (final dose is 100 mg/kg) for 21 days. Cpd. No. 001 was formulated in Vehicle 2 (PEG400 (65%)+PG (20%)+WFI (15%)) as a 10 mg/ml solution, and dosed orally, twice daily, using 10 μl/g (final dose is 100 mg/kg) for 21 days. After tumor cell inoculation, the animals were checked daily for morbidity and mortality. At the time of routine monitoring, the animals were checked for any effects of tumor growth and treatments on behavior such as mobility, food and water consumption, body weight gain/loss (body weight was measured at least two times per week), and any other abnormalities. Mortality and observed clinical signs were recorded for individual animals. Tumor volumes were measured at least two times weekly in two dimensions using a caliper, and the volume was expressed in mm^3 using the formula: V=(L×W×W)/2, where V is tumor volume, L is tumor length (the longest tumor dimension) and W is tumor width (the longest tumor dimension perpendicular to L).
Tumor growth inhibition (TGI) was used as an indicator of antitumor activities, and was calculated from the relative tumor volumes of the control and treatment groups due to the variance of tumor volumes among groups at Day 0. TGI (%)=(1-T/C)×100%; T/C=MTVt/MTVc, MTVt: mean tumor volume in the treatment groups at a specific measurement day, MTVc: mean tumor volume in the control group at a specific measurement day. Moreover, the difference of TGIs between control and treatment groups was analyzed at a measurement day when all or most of the mice in the control groups were alive. In addition, body weight changes over time in each group were used as an index to evaluate the tolerability of test drugs, and were calculated from the average percentage of body weight changes of each individual mouse relative to their initial body weight at randomization using the following formula: group BW %=mean of ((BWt−BW0)/BW0×100%), BWt: body weight at Day t, BW0: body weight at Day 0.
To compare relative tumor volumes of different groups at a pre-specified day, we first used Bartlett's test to check the assumption of homogeneity of variance across all groups. When the p-value of Bartlett's test is >0.05, we run one-way ANOVA to test overall equality of means across all groups. If the p-value of the one-way ANOVA is <0.05, we further perform post hoc testing by running Tukey's HSD (honest significant difference) tests for all pairwise comparisons, and Dunnett's tests for comparing each treatment group with the vehicle group. When the p-value of Bartlett's test is <0.05, we run Kruskal-Wallis test to test overall equality of medians among all groups. If the p-value of the Kruskal-Wallis test is <0.05, we further perform post hoc testing by running Conover's non-parametric test for all pairwise comparisons or for comparing each treatment group with the vehicle group, both with single-step p-value adjustment. All tests were two-sided unless otherwise specified, and p-values<0.05 were regarded as statistically significant. […]
A general note: A xenograft is tissue or cells of one species grown in another, often human tumour cells in immunodeficient mice.

Assay [3] deals with KMRC3. The assay is described as follows: Cancer cell line proliferation assay (CellTiter-Glo), KMRC3. Format: cell-based. As to conditions: 144 h, Kidney, LATS1 HOM DEL, 6 days. As to the method: as §1
Assay [4] has as its system selected tumor cell lines. The assay is described as follows: Cancer cell line proliferation assays, whole panel of selected tumor cell lines. Format: cell-based. As to conditions: cancer cell lines of Table 5. The method, then:
as §1

The mark [5] stands for this setting: day 20, against the compound's own vehicle group.

By GI50 is commonly meant the concentration at which growth is held to half of that of the control. Lower therefore signals more potent growth inhibition.

Consider `C=CC(=O)NC1Cc2ccccc2N(c2ccc(C(F)(F)F)cc2)C1` (stereo not shown) [compound 001, N-(1-(4-(trifluoromethyl)phenyl)-1,2,3,4-tetrahydroquinolin-3-yl)acrylamide], for which the GI50 in assay [1] came to 0.12 µM. Further, the “anti-tumor activity in the xenograft mesothelioma model” value in assay [2] was “highly statistically significant and strong anti-tumor activity”. Moreover, the “Mean Tumor Volume (mm^3) on day 20” value in assay [2] (day 20, 8 mice per group) is on record as 217.26 ± 45.21 (8) mm^3. Besides, in assay [2] (setting [5]), the “T/C (%)” value was found to be 49.62% and the “TGI (%)” value was determined as 50.38%. In assay [3], halving of growth (GI50) required 0.02 µM. Besides, in assay [4], the “inhibitory activity on the cell proliferation of the selected tumor cell lines” value is given as “strong inhibitory activity”.
